Experimental data published in the supplement of paper PMC11061612.

Experiments:
Test in all cases: combination Emax (second highest fraction inhibited in the dose matrix, 72 h); higher = more inhibition; extreme values may be limits of the assay
[1] = tested on: YAPC (Pancreatic Carcinoma)
Outline: (§1)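 After 24 hours at 37°C and 5% CO2 in 1536-well plates, cells in DMEM/F12 or RPMI plus 10% FBS received two-drug dose matrices for 72 hours. Viability came from CellTiter-Glo 2.0 luminescence and was scaled as inhibition, anchored at 0 by vehicle wells and at 1 by blank wells. Combination Emax is taken as the second-highest inhibition in the matrix, and Bliss excess as the observed combination effect less EA + EB − EA·EB, with EA and EB the single-agent effects.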

[2] = tested on: ALL-PO (B-Lymphoblastic Leukemia)
Outline: as §1

GAMG (Glioblastoma) = tested on: GAMG (Glioblastoma)
Outline: as §1

[3] = tested on: BFTC-909 (Kidney Carcinoma)
Outline: as §1

KS-1 (Glioblastoma) = tested on: KS-1 (Glioblastoma)
Outline: as §1

[4] = tested on: TGBC1TKB (Biliary Tract Carcinoma)
Outline: as §1

[5] = tested on: Hs-746T (Gastric Carcinoma)
Outline: as §1

[6] = tested on: LCLC-97TM1 (Non-Small Cell Lung Carcinoma)
Outline: as §1

[7] = tested on: NCI-H209 (Small Cell Lung Carcinoma)
Outline: as §1

[8] = tested on: L-428 (Hodgkin's Lymphoma)
Outline: as §1

| SMILES | combination Emax [1] | combination Emax [2] | combination Emax (GAMG (Glioblastoma)) | combination Emax [3] | combination Emax (KS-1 (Glioblastoma)) | combination Emax [4] | combination Emax [5] | combination Emax [6] | combination Emax [7] | combination Emax [8] |
| --- | --- | --- | --- | --- | --- | --- | --- | --- | --- | --- |
| CN(CCO)CC[C@H](CSc1ccccc1)Nc1ccc(S(=O)(=O)NC(=O)c2ccc(N3CCC([C@@H](O)c4ccccc4-c4ccc(Cl)cc4)CC3)cc2)cc1S(=O)(=O)C(F)(F)F [AZD4320] + CN(C)CCCOc1ccc(-c2ccc3ncc4c(c3c2)n(C2CCOCC2)c(=O)n4C)cn1 [AZD0156] (first compound max 1 µM, 7x7, partner max 1 µM) | 0.129 | 0.97 | 0.197 | 0.239 | 0.239 | 0.492 | 0.38 | 0.107 | 1 | 0.828 |
| CN(CCO)CC[C@H](CSc1ccccc1)Nc1ccc(S(=O)(=O)NC(=O)c2ccc(N3CCC([C@@H](O)c4ccccc4-c4ccc(Cl)cc4)CC3)cc2)cc1S(=O)(=O)C(F)(F)F [AZD4320] + C[C@@H]1COCCN1C2=NC(=NC(=C2)C3(CC3)[S@](=N)(=O)C)C4=C5C=CNC5=NC=C4 [AZD6738] (first compound max 1 µM, 7x7, partner max 10 µM) | 0.251 | 1 | 0.694 | 0.997 | 0.68 | 0.666 | 0.782 | 0.87 | 1 | 0.956 |
| CN(CCO)CC[C@H](CSc1ccccc1)Nc1ccc(S(=O)(=O)NC(=O)c2ccc(N3CCC([C@@H](O)c4ccccc4-c4ccc(Cl)cc4)CC3)cc2)cc1S(=O)(=O)C(F)(F)F [AZD4320] + C[C@@H](Nc1cc(F)cc(F)c1)c1cc(C(=O)N(C)C)cc2c(=O)cc(N3CCOCC3)oc12 [AZD8186] (first compound max 1 µM, 7x7, partner max 3 µM) | 0.237 | 1 | 0.615 | 0.595 | 0.486 | 0.802 | 0.677 | 0.343 | 1 | 0.748 |
| CN(CCO)CC[C@H](CSc1ccccc1)Nc1ccc(S(=O)(=O)NC(=O)c2ccc(N3CCC([C@@H](O)c4ccccc4-c4ccc(Cl)cc4)CC3)cc2)cc1S(=O)(=O)C(F)(F)F [AZD4320] + Cn1cnc2c(F)c(Nc3ccc(Br)cc3Cl)c(C(=O)NOCCO)cc21 [Selumetinib] (first compound max 1 µM, 7x7, partner max 3 µM) | 0.194 | 1 | 0.296 | 0.473 | 0.341 | 0.679 | 0.77 | 0.489 | 1 | 0.737 |
| COc1nnc2ccc(N3CCC(c4ccc(OCCN5CCN(C)C(=O)[C@H]5C)cc4)CC3)nn12 [AZD5153] + C=CCn1c(=O)c2cnc(Nc3ccc(N4CCN(C)CC4)cc3)nc2n1-c1cccc(C(C)(C)O)n1 [AZD1775] (first compound max 1 µM, partner max 1 µM) | 0.461 | 0.995 | 0.665 | 0.702 | 0.686 | 0.296 | 0.535 | 0.848 | 0.912 | 0.918 |
| COc1nnc2ccc(N3CCC(c4ccc(OCCN5CCN(C)C(=O)[C@H]5C)cc4)CC3)nn12 [AZD5153] + CC1(C)CCC(CN2CCN(c3ccc(C(=O)NS(=O)(=O)c4ccc(NCC5CCOCC5)c([N+](=O)[O-])c4)c(Oc4cnc5[nH]ccc5c4)c3)CC2)=C(c2ccc(Cl)cc2)C1 [Venetoclax] (first compound max 1 µM, 7x7, partner max 1 µM) | 0.384 | 0.889 | 0.436 | 0.496 | 0.649 | 0.293 | 0.512 | 0.685 | 0.727 | 0.8 |
| COc1nnc2ccc(N3CCC(c4ccc(OCCN5CCN(C)C(=O)[C@H]5C)cc4)CC3)nn12 [AZD5153] + CCN(CCO)CCCOc1ccc2c(Nc3cc(CC(=O)Nc4cccc(F)c4)[nH]n3)ncnc2c1 [AZD2811] (first compound max 1 µM, 7x7, partner max 1 µM) | 0.342 | 1 | 0.609 | 0.535 | 0.641 | 0.307 | 0.572 | 0.764 | 0.458 | 0.845 |
| COc1nnc2ccc(N3CCC(c4ccc(OCCN5CCN(C)C(=O)[C@H]5C)cc4)CC3)nn12 [AZD5153] + C[C@@H]1COCCN1C2=NC(=NC(=C2)C3(CC3)[S@](=N)(=O)C)C4=C5C=CNC5=NC=C4 [AZD6738] (first compound max 1 µM, 7x7, partner max 10 µM) | 0.529 | 0.987 | 0.682 | 0.876 | 0.69 | 0.508 | 0.63 | 0.87 | 0.908 | 0.929 |
| COc1nnc2ccc(N3CCC(c4ccc(OCCN5CCN(C)C(=O)[C@H]5C)cc4)CC3)nn12 [AZD5153] + Cc1c2c(nn1C)CSCc1cc(n(C)n1)CSc1cc(c3ccccc3c1)OCCCc1c(C(=O)O)n(C)c3c-2c(Cl)ccc13 [AZD5991] (first compound max 1 µM, 7x7, partner max 1 µM) | 0.365 | 1 | 0.425 | 0.535 | 0.629 | 0.289 | 0.495 | 0.733 | 0.981 | 0.833 |
